Literature values in patent US20170348276A1 (Acerus Pharmaceutical Corporation, priority 2016, published 2017).

Columns and labels:
[1] = percent of the activity of Δ9-THC

SMILES	Bioavailability from oil-based oral delivery (oil-based capsule, oral) [%]	oral bioavailability (oral administration, extensive first pass hepatic metabolism) [%]	bioavailability, oral-mucosal/sublingual delivery (sprays/lozenges)	activity relative to Δ9-THC [1] [%]
C=C(C)[C@@H]1CCC(C)=C[C@H]1c1c(O)cc(CCCCC)cc1O [CBD, Cannabidiol]	~6	< 5	up to 12%	
CCCCCc1cc(O)c2c(c1)OC(C)(C)c1ccc(C)cc1-2 [Cannabinol (CBN), Cannabinol]				10
